Test results published in patent publication US6432983B1, “Benzothiophene compounds intermediates processes and methods of use” (Eli Lilly and Company, priority 1996, dated 2002).
Marks after values point to notes of the source that are not given here.

System: ovariectomized rats
Experiment: ovariectomized rat model of postmenopausal hyperlipidemia (uterine weight, uterine eosinophil peroxidase, serum cholesterol)
Type: in vivo
Parameters: Uterine Eosinophil (Vmax): unit not given here
Conditions: for Serum Cholest. % Dec: decrease versus ovariectomized controls
Source text: Experimental models of postmenopausal hyperlipidemia are known in the art. Germane to this invention is the ovariectomized rat model which is detailed in U.S. Pat. No. 5,464,845.
Data presented in Table 1 show comparative results among ovariectomized rats, rats treated with 17-α-ethynyl estradiol(EE2), and rats treated with certain compounds of this invention. […] This uterine response to estrogen is well recognized in the art.
Not only did the compounds of the present invention reduce serum cholesterol compared to the ovariectomized animals, but the uterine weight was increased to lesser extent than those given EE2. Compared to estrogenic compounds known in the art, the benefit of serum cholesterol reduction while lessening the effect on uterine weight is unusual and desirable.
As expressed in the data below, estrogenicity also was assessed by evaluating the response of eosinophil infiltration into the uterus.
The data presented in Table 1 reflect the response per treatment group.

[1] = ovariectomized rats, dose 1.0 mg/kg
[2] = ovariectomized rats, dose 10.0 mg/kg

SMILES | uterine weight (in words) (compared to the ovariectomized animals or to EE2) | serum cholesterol (in words) (compared to the ovariectomized animals, EE2 orally at 0.1 mg/kg/day) | Uterine Weight % Inc (ovariectomized rats, dose 0.1 mg/kg, % increase versus the ovariectomized controls) | Uterine Eosinophil (Vmax) (ovariectomized rats, dose 0.1 mg/kg, Eosinophil peroxidase, Vmaximum) | Serum Cholest. % Dec (ovariectomized rats, dose 0.1 mg/kg) | eosinophil infiltration into the uterus (in words) (stromal layer of the ovariectomized rat uteri) | Serum Cholest. % Dec [1] | Serum Cholest. % Dec [2] | Uterine Eosinophil (Vmax) (rat, in vivo, 1 mg/kg) | Uterine Weight % Inc (rat, in vivo, 1 mg/kg) | Uterine Eosinophil (Vmax) (rat, in vivo, 10 mg/kg) | Uterine Weight % Inc (rat, in vivo, 10 mg/kg)
C#C[C@]1(O)CC[C@H]2[C@@H]3CCc4cc(O)ccc4[C@H]3CC[C@@]21C [EE2, 17-α-ethynyl estradiol, reference compound] | substantially greater than the uterine weight of the ovariectomized animals | caused a decrease in serum cholesterol | 125.8* % | 111.2* | 88.1* % | substantial and expected increase in eosinophil infiltration | – | – | – | – | – | –
O=C(c1ccc(OCCCCCCCN2CCCC2)cc1)c1c(-c2ccc(O)cc2)sc2cc(O)ccc12 [Example 11, [2-(4-Hydroxyphenyl)-6-hydroxybenzo[b]thien-3-yl][4-[7-(1-pyrrolidinyl)heptyloxyl]phenyl]methanone] | – | – | – | – | – | – | 32.4* % | 60.5* % | 5.9 | 9.3% | 59.2* | 64.0* %
O=C(c1ccc(OCCCCCN2CCCC2)cc1)c1c(-c2ccc(O)cc2)sc2cc(O)ccc12 [Example 13, [2-(4-Hydroxyphenyl)-6-hydroxybenzo[b]thien-3-yl][4-[5-(1-pyrrolidinyl)pentyloxyl]phenyl]methanone] | – | – | – | – | – | – | 36.4* % | 52.9* % | 5.8 | 10.1% | 37.8* | 39.2* %
O=C(c1ccc(OCCCN2CCCC2)cc1)c1c(-c2ccc(O)cc2)sc2cc(O)ccc12 [Example 15, [2-(4-Hydroxyphenyl)-6-hydroxybenzo[b]thien-3-yl][4-[3-(1-pyrrolidinyl)propyloxyl]phenyl]methanone] | – | – | – | – | – | – | 62.7* % | 64.0* % | 51.6* | 52.6* % | 137.3* | 58.2* %
O=C(c1ccc(OCCCCCCCCN2CCCC2)cc1)c1c(-c2ccc(O)cc2)sc2cc(O)ccc12 [Preparation C, [2-(4-Hydroxyphenyl)-6-hydroxybenzo[b]thien-3-yl][4-[8-(1-pyrrolidinyl)octyloxyl]phenyl]methanone] | – | – | – | – | – | – | 31.3* % | 72.8* % | 4.2 | 18.3* % | 40.3* | 69.3* %
O=C(c1ccc(OCCCCN2CCCC2)cc1)c1c(-c2ccc(O)cc2)sc2cc(O)ccc12 [Example 14, [2-(4-Hydroxyphenyl)-6-hydroxybenzo[b]thien-3-yl][4-[4-(1-pyrrolidinyl)butyloxyl]phenyl]methanone] | – | – | – | – | – | – | 37.9* % | 65.7* % | 24.3* | 21.4* % | 66.5* | 62.0* %
O=C(c1ccc(OCCCCCCN2CCCC2)cc1)c1c(-c2ccc(O)cc2)sc2cc(O)ccc12 [Example 12, [2-(4-Hydroxyphenyl)-6-hydroxybenzo[b]thien-3-yl][4-[6-(1-pyrrolidinyl)hexyloxyl]phenyl]methanone] | – | – | – | – | – | – | 34.2* % | 74.0* % | 2.6 | −2.6% | 17.2* | 47.8* %
